Literature values, collected in patent US8440796B2, “Lenalidomide and thalidomide immunoassays” (Saladax Biomedical Inc., priority 2010, dated 2013).
Like-named read-outs stand apart in the source and are kept apart here.

Tests used:
[1] = patients with central nervous system tumors
[2] = HIV patients, phase I study
[3] = healthy subjects

Compound	variability in Cmax [1]	variability in t1/2 [1]	half-life time t1/2 [2] [h]	maximum drug concentration Cmax [2] [mg/L]	variability in Cmax [3]	variability in t1/2 [3]
Nc1cccc2c1CN(C1CCC(=O)NC1=O)C2=O (stereo not drawn) [lenalidomide]	up to 78%	up to 122%				
O=C1CCC(N2C(=O)c3ccccc3C2=O)C(=O)N1 (stereo not drawn) [thalidomide]			5.9 ± 2.3	2.8 ± 2.6	up to 52%	up to 37%
